16 molecules from ChEMBL document CHEMBL4177620, “A comparative study of warheads for design of cysteine protease inhibitors” (Bioorg Med Chem Lett, 2017) can be followed below.

In data set [1] the target is Cruzipain (Trypanosoma cruzi, UniProt P25779). As to the kind of experiment: Inhibition of recombinant Trypanosoma cruzi cruzain using Z-phe-Arg-7-amido-4-methylcoumarin as substrate by fluorometric method.
Data set [2] concerns the target Cruzipain (Trypanosoma cruzi) (UniProt P25779). As to the kind of experiment: Reversible inhibition of recombinant Trypanosoma cruzi cruzain using Z-phe-Arg-7-amido-4-methylcoumarin as substrate by fluorometric method.
Data set [3] relates to Trypanosoma cruzi. In words: Antitrypanosomal activity against amastigote form of Trypanosoma cruzi Y infected in human U2OS cells. It is filed as functional, organism-based.
The nature of data set [4]: Cytotoxicity against human U2OS cells. It counts as cell-based.
In data set [5] the target is Cruzipain (Trypanosoma cruzi) (UniProt P25779). In words: Inhibition of recombinant Trypanosoma cruzi cruzain assessed as dissociation rate constant using Z-phe-Arg-7-amido-4-methylcoumarin as substrate by fluorometric method.
Sequence of Cruzipain (Trypanosoma cruzi) (P25779 123-467 limits assumed): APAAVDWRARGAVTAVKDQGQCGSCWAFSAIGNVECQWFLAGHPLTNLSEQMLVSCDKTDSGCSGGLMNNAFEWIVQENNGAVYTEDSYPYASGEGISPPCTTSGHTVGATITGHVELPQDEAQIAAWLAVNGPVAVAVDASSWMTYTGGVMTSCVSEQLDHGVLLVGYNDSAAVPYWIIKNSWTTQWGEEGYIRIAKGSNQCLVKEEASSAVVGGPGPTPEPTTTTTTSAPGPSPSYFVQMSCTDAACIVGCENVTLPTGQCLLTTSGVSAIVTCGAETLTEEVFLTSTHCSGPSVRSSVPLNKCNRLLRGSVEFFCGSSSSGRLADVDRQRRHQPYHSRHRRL
Data set [6] has the same target. As to the kind of experiment: Ratio of Kinact to Ki for recombinant Trypanosoma cruzi cruzain using Z-phe-Arg-7-amido-4-methylcoumarin as substrate.
Data set [7] shares this target. In words: Irreversible inhibition of recombinant Trypanosoma cruzi cruzain using Z-phe-Arg-7-amido-4-methylcoumarin as substrate by fluorometric method.

Molecules are shown by their SMILES. Activity calls are given as the source filed them. The rule behind the calls is not given here. Non-standard residues stand in square brackets, D forms with d. Residues, ends and D or L forms follow the SMILES beside them. *: point of attachment. Cbz = O=C(OCc1ccccc1)*; Ac3c = NC1(C(=O)O)CC1

Sequence of Cruzipain (P25779 whole entry): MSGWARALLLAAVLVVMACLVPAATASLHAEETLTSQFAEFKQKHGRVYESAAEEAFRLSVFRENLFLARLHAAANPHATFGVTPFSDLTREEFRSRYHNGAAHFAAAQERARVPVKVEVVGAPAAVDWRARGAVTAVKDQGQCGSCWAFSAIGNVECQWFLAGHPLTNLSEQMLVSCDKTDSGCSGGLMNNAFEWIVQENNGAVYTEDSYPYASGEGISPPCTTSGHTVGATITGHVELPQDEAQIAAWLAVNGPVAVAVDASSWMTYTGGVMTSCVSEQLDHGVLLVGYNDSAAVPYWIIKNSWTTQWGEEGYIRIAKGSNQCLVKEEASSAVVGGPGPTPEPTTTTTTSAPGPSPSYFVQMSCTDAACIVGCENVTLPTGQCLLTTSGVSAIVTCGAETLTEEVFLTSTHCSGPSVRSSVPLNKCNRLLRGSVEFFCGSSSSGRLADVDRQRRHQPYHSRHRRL

Usually Ki stands for the equilibrium dissociation constant of an inhibitor or competing ligand from its target. Regarding `O=CC1(NC(=O)[C@H](Cc2ccccc2)NC(=O)OCc2ccccc2)CC1` (Cbz-Phe-[Ac3c]-aldehyde), the Ki in data set [1] is 3.98 µM.
With `CCN(CC)C(=O)/C=C/C1(NC(=O)[C@H](Cc2ccccc2)NC(=O)OCc2ccccc2)CC1`, the inhibition entry in data set [2] was “Active”. For the same molecule, the Ki in data set [1] was 200 µM.
For orientation: EC50 means the concentration giving half of the maximal effect. Broadly, the CC50 is the concentration at which the toxic effect on the cells reaches its halfway point. Higher therefore signals lower toxicity to the cells. Consider `N#CCNC(=O)[C@H](Cc1ccccc1)NC(=O)OCc1ccccc1`, for which the inhibition result in data set [2] was “Active”. This molecule also showed an EC50 in data set [3] greater than 100 µM. The same molecule gave a CC50 in data set [4] greater than 100 µM.
Regarding `CNC(=O)/C=C/C1(NC(=O)[C@H](Cc2ccccc2)NC(=O)OCc2ccccc2)CC1`, the inhibition entry in data set [2] was “Active”. The inhibition constant (Ki) in data set [1] is 398 µM.
For orientation: koff means the first-order rate constant of dissociation. For the molecule `CN(C#N)N(C)C(=O)[C@H](Cc1ccccc1)NC(=O)OCc1ccccc1`, in data set [5], the koff is 0.011 s⁻¹. The inhibition result in data set [2] was “Active”. The same molecule showed an EC50 in data set [3] of 5.01 µM. Further, the inhibition constant Ki in data set [1] is 0.002 µM. This molecule showed a half-maximal cytotoxic concentration (CC50) in data set [4] of 10 µM.
On to `O=C(N[C@@H](Cc1ccccc1)C(=O)Nc1cnoc1)OCc1ccccc1`, for which the EC50 in data set [3] is greater than 100 µM. The inhibitory constant (Ki) in data set [1] is 10 µM. This molecule showed a CC50 in data set [4] greater than 100 µM.
In the case of `CCOC(=O)/C=C/CNC(=O)[C@H](Cc1ccccc1)NC(=O)OCc1ccccc1`, the Ratio in data set [6] is 9.8 ×10³ /s/M. In data set [7], the inhibition entry was “Active”. Also, the inhibition constant Ki in data set [1] is 1.58 µM.
With `CCOC(=O)/C=C\CNC(=O)[C@H](Cc1ccccc1)NC(=O)OCc1ccccc1`, the inhibition entry in data set [2] is “Active”. Moreover, the inhibition constant (Ki) in data set [1] is 6.31 µM.
Take `Cc1coc(NC(=O)[C@H](Cc2ccccc2)NC(=O)OCc2ccccc2)n1`: in data set [3], the EC50 is 39.8 µM. Further, the Ki in data set [1] was 25.1 µM. The same molecule showed a CC50 in data set [4] greater than 100 µM.
`N#CC1(NC(=O)[C@H](Cc2ccccc2)NC(=O)OCc2ccccc2)CC1`: the EC50 in data set [3] was greater than 100 µM. Besides, the Ki in data set [1] is 6.31 µM. This molecule also had a CC50 in data set [4] greater than 100 µM.
In the case of `O=CCNC(=O)[C@H](Cc1ccccc1)NC(=O)OCc1ccccc1` (Cbz-Phe-Gly-aldehyde), the inhibition result in data set [2] is “Active”. For the same molecule, in data set [1], the Ki is 0.00794 µM.
Consider `CN(C#N)N(C)C(=O)[C@H](Cc1ccccc1)NC(=O)c1cc(C(C)(C)C)nn1C`, for which the koff in data set [5] amounted to 0.012 s⁻¹. In addition, the inhibitory constant (Ki) in data set [1] is 0.00158 µM.
For `O=C(N[C@@H](Cc1ccccc1)C(=O)NCC=NO)OCc1ccccc1`, the inhibition entry in data set [2] was “Active”. The Ki in data set [1] is 0.1 µM.
As for `CC(C)C[C@H](NC(=O)OC(C)(C)C)C(=O)N(C)N(C)C#N`, the off-rate (koff) in data set [5] came out at 0.0053 s⁻¹. For the same molecule, the inhibition result in data set [2] is “Active”. The molecule also showed an EC50 in data set [3] of 39.8 µM. In data set [1], the Ki was 0.01 µM. The CC50 in data set [4] is 50.1 µM.
Consider `CCOC(=O)/C=C/C1(NC(=O)[C@H](Cc2ccccc2)NC(=O)OCc2ccccc2)CC1`, for which the inhibition entry in data set [2] was “Active”. In data set [1], the Ki is 126 µM.
In the case of `CC(C)C[C@H](NC(=O)c1cc(C(C)(C)C)nn1C)C(=O)N(C)N(C)C#N`, the EC50 in data set [3] is 12.6 µM.
